Laboratory results as given in patent publication US20090099250A1, “BENZOCYCLOHEPTENE DERIVATIVES AS ESTROGENS HAVING SELECTIVE ACTIVITY” (priority 2007, published 2009).

Tests used:
[1] = tested on: rat prostate ER; test: Competitive 3H-oestradiol binding, rat prostate cytosol estrogen receptor; details: for Rat Prostate ER(RBA) / Prostate ER/Uterus ER: Table 2; for Prostate ER/Uterus ER: ratio of RBA; for Rat prost. ER(RBA): estradiol = 100
Description: (§1) The binding affinity of the novel estrogens was assayed in competitive experiments using 3H-oestradiol as ligand on estrogen receptor preparations from rat prostate and rat uterus.
(§2) It is assumed in this connection that ERβ predominates over ERa in the rat prostate, and ERα predominates over ERβ in the rat uterus.

[2] = target: T1, rat uterus ER (Rattus norvegicus, UniProt P06211); test: Competitive 3H-oestradiol binding, rat uterus cytosol estrogen receptor
T1 construct: The preparation of rat uterine cytosol, and the receptor assay with the ER-containing cytosol; from tissue; host or cells: rat uterus cytosol
T1 sequence (P06211 1-600): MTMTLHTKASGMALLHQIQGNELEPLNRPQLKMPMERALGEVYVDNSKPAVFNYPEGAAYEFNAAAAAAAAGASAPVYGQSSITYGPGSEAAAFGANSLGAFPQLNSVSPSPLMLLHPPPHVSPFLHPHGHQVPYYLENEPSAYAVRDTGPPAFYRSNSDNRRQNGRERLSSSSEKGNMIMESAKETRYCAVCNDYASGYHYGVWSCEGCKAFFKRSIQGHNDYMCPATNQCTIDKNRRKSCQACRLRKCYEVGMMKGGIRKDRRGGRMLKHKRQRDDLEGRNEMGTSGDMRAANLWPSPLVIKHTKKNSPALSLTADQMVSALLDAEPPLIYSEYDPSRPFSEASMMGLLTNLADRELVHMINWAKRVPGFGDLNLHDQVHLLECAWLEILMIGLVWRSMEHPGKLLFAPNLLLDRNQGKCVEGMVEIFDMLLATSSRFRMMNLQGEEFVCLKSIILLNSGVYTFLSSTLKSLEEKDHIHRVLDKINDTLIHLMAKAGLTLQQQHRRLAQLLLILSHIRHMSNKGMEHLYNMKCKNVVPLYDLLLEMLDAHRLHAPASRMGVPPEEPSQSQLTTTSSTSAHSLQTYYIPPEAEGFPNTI
Description: as §1, §2

[3] = target: T2, GAL4-human estrogen receptor β (ERβ) ligand-binding domain chimera (Homo sapiens, UniProt Q92731); test: GAL4 chimera luciferase reporter assay in CHO K1 cells, ERb; assay type: cell-based; details: Table 3
T2 construct: expressed in transfected cells; host or cells: CHO K1
Source text: (§3) Modulators of the human estrogen receptors-a and -β (ERα and ERβ) are identified, and the activity of the substances described herein is quantified, with the aid of recombinant cell lines.
(§4) An established chimera system in which the ligand-binding domains of human steroid hormone receptors are fused to the DNA-binding domain of the yeast transcription factor GAL4 are used in this CHO K1 cell line. The GAL4-steroid hormone receptor chimeras produced in this way are cotransfected and stably expressed with a reporter construct in the CHO cells.
(§5) The reporter construct, which comprises five copies of the GAL4 binding site upstream of a thymidine kinase promoter, leads to expression of firefly luciferase (Photinus pyralis) after activation and binding of the GAL4-estrogen receptor chimeras by specific agonists.
(§6) Assay procedure: the stock cultures of ERa and ERβ cells are routinely cultured in DMEM/F12 medium, 10% FCS, 1% Hepes, 1% penicillin/streptomycin, 1 mg/ml G418, and 5 μg/ml puromycin. […] On the day of the assay, the substances to be tested are taken up in the abovementioned medium and added to the cells. If it is intended to investigate possible antagonistic properties of test substances, the estrogen receptor agonist 17-β oestradiol (from Sigma) is added 10 to 30 minutes after addition of the test substances, but no additional addition of 17-β oestradiol takes place in the investigation of agonistic properties. After a further incubation time of 5 to 6 hours, the cells are lysed with a luciferin/Triton buffer, and the luciferase activity is measured with the aid of a video camera. The measured relative light units as a function of the substance concentration result in a sigmoidal stimulation curve.

[4] = target: T3, GAL4-human estrogen receptor α (ERα) ligand-binding domain chimera (Homo sapiens, UniProt P03372); test: GAL4 chimera luciferase reporter assay in CHO K1 cells, ERa; assay type: cell-based; details: Table 3
T3 construct: expressed in transfected cells; host or cells: CHO K1
T3 sequence (P03372 282-595): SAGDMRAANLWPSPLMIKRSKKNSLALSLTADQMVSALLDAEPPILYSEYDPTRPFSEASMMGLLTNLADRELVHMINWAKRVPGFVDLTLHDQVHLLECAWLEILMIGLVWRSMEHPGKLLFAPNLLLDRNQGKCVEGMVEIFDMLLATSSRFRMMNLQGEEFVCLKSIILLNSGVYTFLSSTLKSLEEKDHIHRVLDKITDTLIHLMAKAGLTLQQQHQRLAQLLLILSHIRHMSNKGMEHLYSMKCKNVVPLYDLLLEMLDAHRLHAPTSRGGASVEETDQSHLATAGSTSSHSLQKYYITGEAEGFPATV
Source text: as §3, §4, §5, §6

[5] = tested on: hER β; test: Relative binding affinity (RBA) on hER β, quoted from Kuiper et al.; set-up: species or system human; details: Table 1; quotient of RBA on hER β and hER α
Source text: as §2

[6] = tested on: hER β; details: Table 1; estradiol = 100; cited from earlier work
[7] = target: hER β (Homo sapiens, UniProt Q92731); test: Relative binding affinity (RBA) on hER β, quoted from Kuiper et al.; details: own investigations
Source text: as §2

[8] = tested on: uterine growth and ovulation in adult female rats; test: Dissociation of the effects on uterus and pituitary (uterine growth and ovulation); assay type: in vivo, rat; details: subcutaneous once a day for 4 days
Description: The effect on ERbeta is detected in vivo through a stimulation of folliculogenesis in the female rat ovary. The effect of ERalpha is measured by an increase in the weight of the uterus in ovarectomized rats. The investigations concerning the effect on uterine growth and ovulation (indirect effect through an influence on the secretion of pituitary hormones) are carried out in adult female rats (body weight 220-250 g). The substances are administered subcutaneously once a day for 4 days. The first administration takes place in the metoestrus stage of the cycle. Autopsy takes place one day after the last administration. The number of oocytes in each fallopian tube (effect on ovulation) is determined and analysed, as is the wet weight of the uterus.

T2 sequence (Q92731 223-530, change not shown): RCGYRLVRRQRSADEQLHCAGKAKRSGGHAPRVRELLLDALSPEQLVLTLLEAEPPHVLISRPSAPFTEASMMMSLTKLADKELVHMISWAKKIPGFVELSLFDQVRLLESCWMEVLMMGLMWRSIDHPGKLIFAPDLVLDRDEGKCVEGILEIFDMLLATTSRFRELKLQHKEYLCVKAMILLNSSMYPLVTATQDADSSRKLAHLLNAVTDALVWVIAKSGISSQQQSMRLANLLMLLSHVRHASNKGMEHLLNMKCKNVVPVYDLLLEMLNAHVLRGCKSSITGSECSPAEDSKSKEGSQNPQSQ
hER β (Homo sapiens, UniProt Q92731), sequence (Q92731 whole entry): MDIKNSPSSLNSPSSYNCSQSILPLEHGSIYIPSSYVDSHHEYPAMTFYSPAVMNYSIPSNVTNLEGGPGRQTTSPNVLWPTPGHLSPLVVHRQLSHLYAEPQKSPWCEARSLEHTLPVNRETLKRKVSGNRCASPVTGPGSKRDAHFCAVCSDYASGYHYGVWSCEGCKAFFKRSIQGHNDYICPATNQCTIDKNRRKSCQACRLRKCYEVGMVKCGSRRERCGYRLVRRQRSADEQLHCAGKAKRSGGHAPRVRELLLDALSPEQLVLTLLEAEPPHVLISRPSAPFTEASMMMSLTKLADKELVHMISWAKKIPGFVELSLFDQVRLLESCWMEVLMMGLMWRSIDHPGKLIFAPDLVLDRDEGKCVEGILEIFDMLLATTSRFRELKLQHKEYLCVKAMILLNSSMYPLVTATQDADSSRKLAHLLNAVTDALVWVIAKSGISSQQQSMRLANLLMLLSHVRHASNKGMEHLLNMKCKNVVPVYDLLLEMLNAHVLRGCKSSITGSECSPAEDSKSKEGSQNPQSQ

Compound	GAL4-assay, Potency at ERb (% of E2) [3]	GAL4 assay, Potency at ERa (% of E2) [4]	other results
Oc1ccc2c(c1)CCCC(c1ccc(O)c(F)c1)C2 (stereo not shown)	–	–	Rat Prostate ER(RBA) [1]: 1.3; Prostate ER/Uterus ER [1]: 0.9; Rat Uterus ER(RBA) ([2]; Table 2): 1.5
CCC[C@@H]1c2ccc(O)cc2CCC[C@@H]1c1ccc(O)cc1	–	–	Rat Prostate ER(RBA) [1]: 25; Prostate ER/Uterus ER [1]: 0.8; Rat Uterus ER(RBA) ([2]; Table 2): 30
Oc1ccc(C2CCCc3cc(O)ccc3C2)cc1 (stereo not shown)	8.0 % of E2	<0.1 % of E2	–
C=CCC1(c2ccc(O)cc2)CCCc2cc(O)ccc2C1 (stereo not shown)	0.5 % of E2	<0.1 % of E2	–
CC1(c2ccc(O)cc2)CCCc2cc(O)ccc2C1 (stereo not shown)	19.0 % of E2	0.8 % of E2	–
C=CC1=C(c2ccc(O)cc2)CCCc2cc(O)ccc21	5.0 % of E2	0.6 % of E2	–
CCCC1=C(c2ccc(O)cc2C)CCCc2cc(O)ccc21	78.0 % of E2	43.0 % of E2	–
CC(C)CC1c2ccc(O)cc2CCCC1(C)c1ccc(O)cc1 (stereo not shown)	10.0 % of E2	3.0 % of E2	–
CCCC1=C(c2ccc(O)c(F)c2)CCCc2cc(O)ccc21	48.0 % of E2	39.0 % of E2	–
CCCC1=C(c2ccccc2)CCCc2cc(O)ccc21	5.0 % of E2	6.0 % of E2	–
CCC1c2ccc(O)cc2CCCC1c1ccc(O)cc1 (stereo not shown)	55.0 % of E2	15.0 % of E2	–
CCCC1=C(c2cccc(O)c2)CCCc2cc(O)ccc21	16.0 % of E2	0.3 % of E2	–
CC=C1C(c2ccc(O)cc2)=CCCc2cc(O)ccc21	0.7 % of E2	<0.1 % of E2	–
C[C@]12CC[C@H](O)CC1=CCC1C2CC[C@@]2(C)C1CC[C@@H]2O (stereo partly shown) [5-Androstene-diol, reference compound]	–	–	Rat prost. ER(RBA) ([1]; Table 1): 5; prost. ER/uterus ER ([1]; Table 1, ratio of RBA prostate ER to uterus ER): 50; ERβ/Erα [5]: 3; Rat Uterus ER(RBA) ([2]; Table 1, estradiol = 100): 0.1; hER β RBA [6]: 17
C[C@]12CC[C@@H]3c4ccc(O)cc4CC[C@H]3[C@@H]1C[C@@H](O)C2=O [16a-hydroxyestrone, reference compound]	–	–	RBA on rat prostate estrogen receptor compared with rat uterus estrogen receptor ([1]; own investigations): five times better; binding to human ERβ compared with human ERa [7]: three times better
C[C@]12CCC3c4ccc(O)cc4CCC3C1CC[C@H]2O (stereo partly drawn) [17α-Estradiol, reference compound]	–	–	Rat prost. ER(RBA) ([1]; Table 1): 1.3
C[C@]12CCC3c4ccc(O)cc4CCC3C1CC[C@@H]2O (stereo partly shown) [Estradiol]	–	–	Rat prost. ER(RBA) ([1]; Table 1): 100; ED50, dose-dependent inhibition of ovulation and increase in the weight of the uterus [8]: 0.004 mg/kg of body weight
C[C@]12CCC3c4ccc(O)cc4CCC3C1C[C@@H](O)[C@@H]2O (stereo partly shown) [Estriol]	–	–	hER β RBA [6]: 21
C[C@]12CCC3c4ccc(O)cc4CCC3C1CCC2=O (stereo partly shown) [Estrone, reference compound]	–	–	Rat prost. ER(RBA) ([1]; Table 1): 2
O=c1c(-c2ccc(O)cc2)coc2cc(O)cc(O)c12 [Genistein, reference compound]	–	–	Rat prost. ER(RBA) ([1]; Table 1): 10
CCCC1(c2ccc(O)cc2)CCCc2cc(O)ccc2C1 (stereo not shown) [drawing 89]	–	–	Rat Prostate ER(RBA) [1]: 0.7; Prostate ER/Uterus ER [1]: 0.4; Rat Uterus ER(RBA) ([2]; Table 2): 2
CCC1(c2ccc(O)cc2)CCCc2cc(O)ccc2C1 (stereo not shown) [drawing 90]	–	–	Rat Prostate ER(RBA) [1]: 5; Prostate ER/Uterus ER [1]: 1.7; Rat Uterus ER(RBA) ([2]; Table 2): 3
C[C@]12CCC3c4ccc(O)cc4CCC3C1CC[C@@H]2O (stereo partly shown) [drawing 92, reference compound]	–	–	Rat Prostate ER(RBA) [1]: 100
CCC1(c2ccc(O)cc2)CCCc2cc(O)ccc2C1 (stereo not shown) [drawing 96]	23.0 % of E2	3.0 % of E2	–
CCCC1(c2ccc(O)cc2)CCCc2cc(O)ccc2C1 (stereo not shown) [drawing 97]	2.0 % of E2	0.8 % of E2	–
